Converted amounts (≈) assume the structure as drawn. Like-named read-outs stand apart in the source and are kept apart here.
Columns and labels:
M. abscessus ATCC 19977 = assay: MIC assay in 96-well plate format, wild-type strain; format: cell-based, Mycobacterium abscessus
Method in brief: (§1)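 Two-fold, ten-point dilutions in 7H9 with 2% DMSO; mid-log culture diluted to OD600=0.1 (1×10^7 CFU/mL). Incubated 3 days at 37 °C, shaking 110 RPM; growth = Day 3 minus Day 0 OD600, expressed as percentage of drug-free growth and plotted against concentration. Two biological replicates.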

Δarr M. abscessus = assay: MIC assay, isogenic arr-deleted strain; format: cell-based, Mycobacterium abscessus; details: for Δarr Mab MIC: arr-deleted strain, 90% growth inhibition
Method in brief: as §1

M. abscessus Bamboo [1] = assay: MIC assay, clinical isolate Bamboo; format: cell-based, Mycobacterium abscessus
M. abscessus Bamboo [2] = assay: Broth MBC90 (bMBC90); format: cell-based, Mycobacterium abscessus
Excerpt: Broth MIC, broth MBC90 (bMBC90), and caseum surrogate MBC90 ([…]) of clinically used antibiotics and of novel ADP-ribosylation-resistant rifabutin analogs against M. abscessus Bamboo have been evaluated.

M. abscessus Bamboo [3] = assay: Caseum surrogate MBC90 (cMBC90) kill assay; format: cell-based, Mycobacterium abscessus; details: for MBC: read-out: cMBC90
Excerpt: (§2) The surrogate matrix was generated as described previously from cultured THP-1 cells (ATCC TIB-202) (mBio, 2023, 14, e0059823). M. abscessus exponential cultures grown in Middlebrook 7H9 broth (Sigma Aldrich) (OD600 0.6-0.9) were spun down and resuspended in water to an OD600 of 7, 0.7, and 0.07. As described for the M. tuberculosis caseum surrogate assay (mnBio, 2023, 14, e0059823), the bacterial suspensions (at three different dilutions resulting in ˜10^9, 10^8, and 10^7 starting CFU/mL, represented by circle, square, and triangle indicators respectively) were added to the caseum surrogate in the ratio 2:1 (vol/wt), briefly homogenized with 1.4-mm zirconia beads, divided evenly into nine 1.5-mL microcentrifuge tubes, and incubated as standing cultures at 37° C. At the indicated time points, tubes were removed and used for CFU enumeration by plating on Middlebrook 7H11 agar (Sigma Aldrich). Separate tubes were used at each time point. To determine the kill curves, cultures with a starting CFU/mL of 10^8 were used (resulting in the middle curve with square indicators). Arrows indicate the time points when drugs were added and the end of the treatment. The experiment was repeated three times independently, yielding similar results. A representative example is shown. Dots and error bars represent means and standard deviations of three technical replicates, respectively.
FIGS. 29A-29M show the Dose-response kill curves against M. abscessus Bamboo in caseum surrogate. M. abscessus cultures were set up as described in the legend of FIG. 28. Bacterial cell suspensions were added to yield a starting CFU of 10^8/mL (FIG. 28, middle growth curve with square indicators). […] The shaded areas indicate drug concentration windows achieved in caseum in vivo. (Antimicrob. Agents Chemother., 2021, 65, e0050621; Antimicrob. Agents Chemother., 2022, 66, e0221221; PLoS Med., 2019, 16, e1002773; ACS Infect. Dis., 2016, 2, 251-267). The experiment was repeated twice independently, yielding similar results. A representative example is shown. Dots and error bars represent means and standard deviations of three technical replicates, respectively. Horizontal dotted lines indicate the cutoff for 1 log reduction in CFU compared to 10-day drug-free control culture. The cMBC90 values shown in Table 16 are the drug concentrations that reduce CFU by 90% relative to the CFU of drug-free controls at day 10. Since the cultures were in the stationary phase on day 5 when drug treatment started, the CFUs of the drug-free cultures at day 10 were similar to the CFUs of the drug-free cultures at day 5 (FIG. 28).
as §2, with “(doi: 10.1128/mbio.00598-23).” for “(mBio, 2023, 14, e0059823).”, “(doi: 10.1128/mbio.00598-23),” for “(mnBio, 2023, 14, e0059823),”, “CFU/mL)” for “CFU/mL, represented by circle, square, and triangle indicators respectively)”, “curves for the drugs,” for “curves,”, “used.” for “used (resulting in the middle curve with square indicators). Arrows indicate the time points when drugs were added and the end of the treatment.”, “results.” for “results. A representative example is shown. Dots and error bars represent means and standard deviations of three technical replicates, respectively.”
The experiment was repeated twice independently, yielding similar results. A representative example is shown. The cMBC90 values shown in Table 16 are the drug concentrations that reduce CFU by 90% relative to the CFU of drug-free controls at day 10. […]

[4] = Mouse pharmacokinetics studies; format: in vivo, CD-1 mice; details: for AUCp.o.: po
Description: Blood was captured in CB300 blood collection tubes containing K2EDTA and stored on ice. Plasma was recovered after centrifugation and stored at −80° C. until analyzed by high pressure liquid chromatography coupled to tandem mass spectrometry (LC-MS/MS). Pharmacokinetic parameters were calculated using non-compartmental pharmacokinetic analysis. […] Extracts were vortexed for 5 minutes and centrifuged at 4000 RPM for 5 minutes. 75 μL of supernatant was transferred for LC-MS/MS analysis and diluted with 75 μL of Milli-Q deionized water. Rifabutin was purchased from Carbosynth. C25-desacetyl rifabutin and rifabutin-d7 were purchased from Toronto Research Chemical. Verapamil was purchased from Sigma-Aldrich. […] Multiple-reaction monitoring of parent/daughter transitions in electrospray positive-ionization mode was used to quantify all analytes. […] Data processing was performed using Analyst software (version 1.6.2; Applied Biosystems Sciex).

[5] = Plasma protein binding assay (rapid equilibrium dialysis); format: in vitro ADME
Method in brief: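 Plasma was spiked to 10,000 ng/mL compound and dialysed against PBS by rapid equilibrium dialysis for 4 h at 37° C with shaking at 300 RPM. Plasma and buffer aliquots were matrix-matched 1:1 […] and quantified by LC-MS/MS.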

Mycobacterium abscessus = assay: MIC against Mycobacterium abscessus (strain not given); format: cell-based
RFB-R1 M. abscessus = assay: microbe, parasite or virus in culture; format: cell-based, Mycobacterium abscessus; details: Mycobacteroides abscessus, read-out: RFB-R1 M. abscessus MIC
[6] = Mycobacteroides abscessus, broth, M. abscessus Bamboo, Table 16, read-out: MIC
[7] = Mycobacteroides abscessus, 120 h, broth, 5 days
[8] = Mycobacteroides abscessus, 120 h

Description for CYP3A4: The threshold cycle (CT) was measured for each isoform cDNA by real time qRT-PCR. The mRNA level of each isoform was assessed by the relative quantifiation with reference gene (GAPDH) as the normalizer method. The normalized fold induction was calculated by 2^−ΔΔCT method, in which 0.1% DMSO was used as the reference (vehicle control). The induction potential of each test compound was analyzed by comparing its fold induction to a pre-determined cutoff value for each lot of hepatocytes. The hepatocytes lots used in this study were validated using 10 known inducers and 5 known non-inducers for each isozyme. A cutoff value is determined based on the validation study for each hepatocytes lot.

CO[C@H]1/C=C/O[C@@]2(C)Oc3c(C)c(O)c4c(c3C2=O)C2=NC3(CCN(CC(C)C)CC3)NC2=C(NC(=O)/C(C)=C/C=C/[C@H](C)[C@H](O)[C@@H](C)[C@@H](O)[C@@H](C)[C@H](OC(=O)c2cncnc2)[C@@H]1C)C4=O [5n, 25-O-(5-pyrimidinecarbonyl)-25-O-desacetyrifabutin]
MIC (M. abscessus ATCC 19977; M. abscessus ATCC 19977, 90% growth inhibition, read-out: WT Mab MIC): 0.018 µM (≈ 0.0164 µg/mL)
MIC ratio (M. abscessus ATCC 19977; WT MIC/Δarr strain MIC): 0.72
Δarr Mab MIC (Δarr M. abscessus): 0.025 µM
MIC (M. abscessus Bamboo [1]; broth, M. abscessus Bamboo, Table 16, read-out: MIC): 0.03 µM (≈ 0.0273 µg/mL)
MBC (M. abscessus Bamboo [2]; broth, 5 days): 0.13 µM (≈ 0.118 µg/mL)
cMBC90/bMBC90 (M. abscessus Bamboo [3]; 5-day assays): 5
MBC (M. abscessus Bamboo [3]; caseum surrogate, 5 days, 90% CFU reduction vs drug-free control): 0.65 µM (≈ 0.592 µg/mL)

NCC[C@H](O)C(=O)N[C@@H]1C[C@H](N)[C@@H](O[C@H]2O[C@H](CN)[C@@H](O)[C@H](O)[C@H]2O)[C@H](O)[C@H]1O[C@H]1O[C@H](CO)[C@@H](O)[C@H](N)[C@H]1O [Amikacin]
MIC (M. abscessus Bamboo [1]; [6]): 25 µM (≈ 14.6 µg/mL)
MBC (M. abscessus Bamboo [2]; [7]): 40 µM (≈ 23.4 µg/mL)
cMBC90/bMBC90 (M. abscessus Bamboo [3]; 5-day assays): 0.3
MBC (M. abscessus Bamboo [3]; [8]): 12 µM (≈ 7.03 µg/mL)

COc1nc2ccc(Br)cc2cc1[C@@H](c1ccccc1)[C@@](O)(CCN(C)C)c1cccc2ccccc12 [Bedaquiline, bedaquiline]
MIC (M. abscessus Bamboo [1]; [6]): 0.4 µM (≈ 0.222 µg/mL)
MBC (M. abscessus Bamboo [2]; Mycobacteroides abscessus, 240 h, assay extended to 10 days): 2 µM (≈ 1.11 µg/mL)
cMBC90/bMBC90 (M. abscessus Bamboo [3]; 10-day assays): 33.5
MBC (M. abscessus Bamboo [3]; Mycobacteroides abscessus, 240 h, caseum surrogate, assay extended to 10 days): 67 µM (≈ 37.2 µg/mL)

CO[C@@]1(NC(=O)Cc2cccs2)C(=O)N2C(C(=O)O)=C(COC(N)=O)CS[C@@H]21 [Cefoxitin, cefoxitin]
MIC (M. abscessus Bamboo [1]; [6]): 29 µM (≈ 12.4 µg/mL)
MBC (M. abscessus Bamboo [2]; [7]): 45 µM (≈ 19.2 µg/mL)
cMBC90/bMBC90 (M. abscessus Bamboo [3]; 5-day assays): 0.78
MBC (M. abscessus Bamboo [3]; [8]): 35 µM (≈ 15 µg/mL)

CC(C)/N=c1\cc2n(-c3ccc(Cl)cc3)c3ccccc3nc-2cc1Nc1ccc(Cl)cc1 [Clofazimine, clofazimine]
MIC (M. abscessus Bamboo [1]; [6]): 12.5 µM (≈ 5.92 µg/mL)
MBC (M. abscessus Bamboo [2]; [7]): > 128 µM
MBC (M. abscessus Bamboo [3]; [8]): > 128 µM

C[C@@H](O)[C@H]1C(=O)N2C(C(=O)O)=C(SCCN=CN)C[C@H]12 [Imipenem, imipenem]
MIC (M. abscessus Bamboo [1]; [6]): 10 µM (≈ 2.99 µg/mL)
MBC (M. abscessus Bamboo [2]; [7]): 18 µM (≈ 5.39 µg/mL)
cMBC90/bMBC90 (M. abscessus Bamboo [3]; 5-day assays): 2.3
MBC (M. abscessus Bamboo [3]; [8]): 42 µM (≈ 12.6 µg/mL)

CC(=O)NC[C@H]1CN(c2ccc(N3CCOCC3)c(F)c2)C(=O)O1 [Linezolid, linezolid]
MIC (M. abscessus Bamboo [1]; [6]): 25 µM (≈ 8.43 µg/mL)
MBC (M. abscessus Bamboo [2]; [7]): 32 µM (≈ 10.8 µg/mL)
cMBC90/bMBC90 (M. abscessus Bamboo [3]; 5-day assays): 16
MBC (M. abscessus Bamboo [3]; [8]): 512 µM (≈ 173 µg/mL)

COc1c(N2C[C@@H]3CCCN[C@@H]3C2)c(F)cc2c(=O)c(C(=O)O)cn(C3CC3)c12 [Moxifloxacin, moxifloxacin]
MIC (M. abscessus Bamboo [1]; [6]): 6 µM (≈ 2.41 µg/mL)
MBC (M. abscessus Bamboo [2]; [7]): 2 µM (≈ 0.803 µg/mL)
cMBC90/bMBC90 (M. abscessus Bamboo [3]; 5-day assays): 4
MBC (M. abscessus Bamboo [3]; [8]): 8 µM (≈ 3.21 µg/mL)

CN(C)c1cc(NC(=O)CNC(C)(C)C)c(O)c2c1C[C@H]1C[C@H]3[C@H](N(C)C)C(O)=C(C(N)=O)C(=O)[C@@]3(O)C(O)=C1C2=O [Tigecycline, tigecycline]
MIC (M. abscessus Bamboo [1]; Mycobacteroides abscessus): 12.5 µM (≈ 7.32 µg/mL)
MBC (M. abscessus Bamboo [2]; [7]): 8 µM (≈ 4.69 µg/mL)
cMBC90/bMBC90 (M. abscessus Bamboo [3]; 5-day assays): 1
MBC (M. abscessus Bamboo [3]; [8]): 8 µM (≈ 4.69 µg/mL)

CO[C@H]1/C=C/O[C@@]2(C)Oc3c(C)c(O)c4c(c3C2=O)C2=NC3(CCN(CC(C)C)CC3)NC2=C(NC(=O)/C(C)=C/C=C/[C@H](C)[C@H](O)[C@@H](C)[C@@H](O)[C@@H](C)[C@H](OC(=O)NC2CCN(Cc3ccccc3)CC2)[C@@H]1C)C4=O [UMN15]
MICWT (M. abscessus ATCC 19977; Table 10): 0.013 µM
MIC (M. abscessus ATCC 19977; Table 14, carbamate analogs, read-out: WT Mab MIC): 0.013 µM (≈ 0.0133 µg/mL)
MICΔorr (Δarr M. abscessus; Table 10): 0.028 µM
ƒAUC/MIC ([4]; Table 18): 0.8
CL ([4]; mouse, in vivo): 6.40 mL/min/kg
F ([4]; mouse, in vivo): 35%
Vd ([4]; mouse, in vivo): 5.92 L/kg
AUCp.o. ([4]; mouse, in vivo): 5658 ng·h/mL
ƒu [5]: 0.2%
plasma unbound fraction ([5]; plasma): 0.19%
MIC (Mycobacterium abscessus; Table 22, read-out: MICMab): 0.013 µM (≈ 0.0133 µg/mL)
CYP3A4 gene fold-induction at 10 μM (CYP3A4): 1.2

CO[C@H]1/C=C/O[C@@]2(C)Oc3c(C)c(O)c4c(c3C2=O)C2=NC3(CCN(CC(C)C)CC3)NC2=C(NC(=O)/C(C)=C/C=C/[C@H](C)[C@H](O)[C@@H](C)[C@@H](O)[C@@H](C)[C@H](OC(=O)Nc2cnccn2)[C@@H]1C)C4=O [UMN120]
MIC (M. abscessus ATCC 19977; Table 15, heterocyclic aromatic carbamates, read-out: WT Mab MIC): 0.028 µM (≈ 0.0259 µg/mL)
F ([4]; mouse, in vivo): 73%
ƒAUC/MIC ([4]; mouse, in vivo): 88.8
AUCp.o. ([4]; mouse, in vivo): 55072 ng·h/mL
ƒu [5]: 4.2%
plasma unbound (ƒu, %) ([5]; plasma): 4.2%
MIC (Mycobacterium abscessus; Table 22, read-out: MICMab): 0.028 µM (≈ 0.0259 µg/mL)
MIC (Mycobacterium abscessus; against Mycobacterium abscessus, Table 19, read-out: MIC): 0.028 µM (≈ 0.0259 µg/mL)
CYP3A4 gene fold-induction at 10 μM (CYP3A4): 0.7

CO[C@H]1/C=C/O[C@@]2(C)Oc3c(C)c(O)c4c(O)c(c(/C=N/N5CCN(C)CC5)c(O)c4c3C2=O)NC(=O)/C(C)=C\C=C\[C@H](C)[C@H](O)[C@@H](C)[C@@H](O)[C@@H](C)[C@H](OC(C)=O)[C@@H]1C [rifampicin, reference compound]
MIC (M. abscessus ATCC 19977; Mycobacteroides abscessus, ATCC19977, read-out: WT Mab MIC): 5.3 µM (≈ 4.36 µg/mL)
Δarr Mab MIC (Δarr M. abscessus): 0.26 µM
MIC (RFB-R1 M. abscessus): > 100 µM
MIC (Mycobacterium abscessus; Mycobacteroides abscessus, 72 h, Table 22, read-out: MICMab): 5.3 µM (≈ 4.36 µg/mL)
